Results on three compounds are retold here after patent US11254640B2, “N-substituted indoles and other heterocycles for treating brain disorders” (The Regents of the University of California, priority 2019, dated 2022).

Where two headings read alike, the source gives them in different places.

One experiment deals with cortical neurons. Briefly: Dendritogenesis assay, Sholl analysis. As to conditions: Rattus norvegicus, Cortical neurone; 10 μM; Nmax with vehicle (DMSO) = 0% and ketamine = 100%; read-out: % efficacy in sholls. The class given is cell-based, rat. The source says: Dendritogenesis Assays. Phenotypic screening has historically proven more successful than target-based approaches for identifying drugs with novel mechanisms of action. Having established a simple and robust method for accessing isoDMT analogs, tested next was their ability to increase dendritic arbor complexity in cultures of cortical neurons using a phenotypic assay. Following treatment, neurons were fixed and visualized using an antibody against MAP2—a cytoskeletal protein localized to the somatodendritic compartment of neurons. Sholl analysis was then performed, and the maximum number of crossings (Nmax) was used as a quantitative metric of dendritic arbor complexity. For statistical comparisons between specific compounds, the raw Nmax values were compared. Percent efficacies were determined by setting the Nmax values for the vehicle (DMSO) and positive (ketamine) controls equal to 0% and 100%, respectively.
Animals. For the dendritogenesis experiments, timed pregnant Sprague Dawley rats were obtained from Charles River Laboratories (Wilmington, Mass.). For the head-twitch response assay, male and female C57BL/6J mice were obtained from Jackson Laboratory (Sacramento, Calif.). Mice were housed in a temperature and humidity-controlled room maintained on a 12-h light/dark cycle in groups of 4-5 (same sex). Animals weighed between 17 and 30 g at the time of the experiments. All experimental procedures involving rodents were approved by the UC Davis Institutional Animal Care and Use Committee (IACUC) and adhered to principles described in the National Institutes of Health Guide for the Care and Use of Laboratory Animals. The University of California, Davis and the University of California, San Francisco are accredited by the Association for Assessment and Accreditation of Laboratory Animal Care International (AAALAC).
Dendritogenesis—Sholl Analysis. Dendritogenesis experiments were performed following a previously published method with slight modifications. Neurons were plated in 96-well format (200 μL of media per well) at a density of approximately 15,000 cells/well in Neurobasal (Life Technologies) containing 1% penicillin-streptomycin, 10% heat-inactivated fetal bovine serum, and 0.5 mM glutamine. After 24 h, the medium was replaced with Neurobasal containing 1× B27 supplement (Life Technologies), 1% penicillin-streptomycin, 0.5 mM glutamine, and 12.5 μM glutamate. After 3 days in vitro (DIV3), the cells were treated with compounds. All compounds tested in the dendritogenesis assays were treated at 10 μM unless noted otherwise. Stock solutions of the compounds in DMSO were first diluted 100-fold in Neurobasal before an additional 10-fold dilution into each well (total dilution=1:1000; 0.1% DMSO concentration). Treatments were randomized. After 1 h, the media was removed and replaced with new Neurobasal media containing 1× B27 supplement, 1% penicillin-streptomycin, 0.5 mM glutamine, and 12.5 μM glutamate. The cells were allowed to grow for an additional 71 h. At that time, neurons were fixed by removing 80% of the media and replacing it with a volume of 4% aqueous paraformaldehyde (Alfa Aesar) equal to 50% of the working volume of the well. Then, the cells were incubated at room temperature for 20 min before the fixative was aspirated and each well washed twice with DPBS. Cells were permeabilized using 0.2% Triton X-100 (ThermoFisher) in DPBS for 20 minutes at room temperature without shaking. Plates were blocked with antibody diluting buffer (ADB) containing 2% bovine serum albumin (BSA) in DPBS for 1 h at room temperature. Then, plates were incubated overnight at 4° C. with gentle shaking in ADB containing a chicken anti-MAP2 antibody (1:10,000; EnCor, CPCA-MAP2). The next day, plates were washed three times with DPBS and once with 2% ADB in DPBS. […]

For experiment [1], the system named is 5HT2A sensor. Briefly: 5HT2A sensor assay, agonist mode (sLight1.3s HEK293T stable line). The conditions noted are these: for 5HT2A Agonist mean @ 100 nM (%): 100 nM compound; for 5HT2A Agonist mean @ 100 nM (%) / 5HT2A Agonist mean @ 10 μM (%) / 5HT2A Agonist mean @ 100 μM (%): percent relative to 5-HT at 100 uM; for 5HT2A Agonist mean @ 10 μM (%): 10 μM compound; for 5HT2A Agonist mean @ 100 μM (%): 100 μM compound. The class given is cell-based. The protocol: In some embodiments, hallucinogenic potential of a compound of the present invention is determined in vitro. In some embodiments, hallucinogenic potential of a compound of the present invention is determined using a 5HT2A sensor assay. In some embodiments, the 5HT2A sensor assay is in an agonist mode or an antagonist mode. In some embodiments, the 5HT2A sensor assay is in an agonist mode.
(§1) 5HT2A Sensor Assays. HEK293T (ATCC) 5HT2A sensor stable line (sLight1.3s) was generated via lentiviral transduction of HIV-EF1α-sLight1.3 and propagated from a single colony. Lentivirus was produced using 2nd generation lentiviral plasmids pHIV-EF1α-sLight1.3, pHCMV-G, and pCMV-deltaR8.2.
(§2) For the screening of the 41 compounds, sLight1.3s cells were plated in 96-well plates at a density of 40000 24-hours prior to imaging. On the day of imaging, compounds solubilized in DMSO were diluted from the 100 mM stock solution to working concentrations of 1 mM, 100 μM and 1 μM with a DMSO concentration of 1%. Immediately prior to imaging, cells growing in DMEM (Gibco) were washed 2× with HBSS (Gibco) and in agonist mode 180 μL of HBSS or in antagonist mode 160 μL of HBSS was added to each well after the final wash. For agonist mode, images were taken before and after the addition of the 20 μL compound working solution into the wells containing 180 μL HBSS. This produced final compound concentrations of 100 μM, 10 μM and 100 nM with a DMSO concentration of 0.1%. For antagonist mode, images were taken before and after addition of 20 μL of 900 nM 5-HT and again after 20 μL of the compound working solutions to produce final concentrations of 100 nM for 5HT and 100 μM, 10 μM and 100 nM for the compounds with a DMSO concentration of 0.1%. Each compound was tested in triplicates (3 wells) for each concentration (100 μM, 10 μM and 100 nM). Additionally, within each plate, 100 nM 5HT and 0.1% DMSO controls were also imaged.
(§3) Imaging was performed using the Leica DMi8 inverted microscope with a 40× objective using the FITC preset with an excitation of 460 nm and emission of 512-542 nm. For each well, the cellular membrane where the 5HT2A sensor is targeted was autofocused using the adaptive focus controls and 5 images from different regions within the well were taken with each image processed from a 2×2 binning.
(§4) For data processing, the membranes from each image was segmented and analyzed using a custom algorithm written in MATLAB producing a single raw fluorescence intensity value. For each well the 5 raw fluorescence intensity values generated from the 5 images were averaged and the change in fluorescence intensity (dFF) was calculated as: dFF=(Fsat−Fapo)/Fapo
(§5) For both agonist and antagonist modes, the fluorescence intensity values before compound addition in HBSS only were used as the Fapo values while the fluorescence intensity values after compound addition were used as the Fsat values.
(§6) For agonist mode, data are as percent activation relative to 5HT, where 0 is the average of the DMSO wells and 100 is the average of the 100 uM 5HT wells. For antagonist mode, the inactivation score was calculated as: Inactivation score=(dFFF(Compound+5HT)−dFF(5HT))/dFF(5HT)

A further experiment deals with T1, 5HT2A (Homo sapiens, UniProt P28223).
T1 construct: expressed in transfected cells
Briefly: Calcium flux assay (Calcium secondary messenger pathway). The class given is cell-based. As to conditions: agonist mode. The text has this: Calcium Flux Assay. Calcium Secondary Messenger Pathway. The Calcium No Wash^PLUS assay monitors the activation of a GPCR (e.g., 5HT2A) via Gq secondary messenger signaling in a live cell, non-imaging assay format. Calcium mobilization in PathHunter® cell lines or other cell lines stably expressing Gq-coupled GPCRs (e.g., 5HT2A) is monitored using a calcium-sensitive dye that is loaded into cells. GPCR (e.g., 5HT2A) activation by a compound results in the release of calcium from intracellular stores and an increase in dye fluorescence that is measured in real-time. In some embodiments, the ability of a compound of the present invention to modulate 5-HT2A function is determined using a calcium flux assay. In some embodiments, a compound of the present invention activates a calcium flux assay.
Calcium Secondary Messenger Pathway. Cell lines were expanded from freezer stocks according to standard procedures. Cells were seeded in a total volume of 20 μL into black-walled, clear-bottom, Poly-D-lysine coated 384-well microplates and incubated at 37° C. for the appropriate time prior to testing. Assays were performed in 1× Dye Loading Buffer consisting of 1× Dye, 1× Additive A and 2.5 mM Probenecid in HBSS/20 mM Hepes. Probenicid was prepared fresh. Cells were loaded with dye prior to testing. Media was aspirated from cells and replaced with 20 μL Dye Loading Buffer. Cells were incubated for 30-60 minutes at 37° C.
For agonist determination, cells were incubated with sample to induce response. After dye loading, cells were removed from the incubator and 10 μL HBSS/20 mM Hepes was added. 3× vehicle was included in the buffer when performing agonist dose curves to define the EC80 for subsequent antagonist assays. Cells were incubated for 30 minutes at room temperature in the dark to equilibrate plate temperature. Intermediate dilution of sample stocks was performed to generate 4× sample in assay buffer. Compound agonist activity was measured on a FLIPR Tetra (MDS). Calcium mobilization was monitored for 2 minutes and 10 μL 4× sample in HBSS/20 mM Hepes was added to the cells 5 seconds into the assay.
Compound activity was analyzed using CBIS data analysis suite (ChemInnovation, CA). For agonist mode assays, percentage activity is calculated using the following formula: % Activity=100%×(mean RFU of test sample−mean RFU of vehicle control)/(mean MAX RFU control ligand−mean RFU of vehicle control).

Experiment [2] relates to 5HT2A sensor. Briefly: 5HT2A sensor assay, antagonist mode (sLight1.3s HEK293T stable line). It counts as cell-based. As to conditions: relative to 5-HT at 100 nM; for 5HT2A Antagonist mean @ 100 nM (%): 100 nM compound; for 5HT2A Antagonist mean @ 10 μM (%): 10 μM compound; for 5HT2A Antagonist mean @ 100 μM (%): 100 μM compound. The protocol: In some embodiments, the 5HT2A sensor assay is in an antagonist mode.
as §1, §2, §3, §4, §5, §6

For a further experiment, the system named is rat cortical neurons. Briefly: Neurite outgrowth assay. The class given is cell-based. As to conditions: Cortical neurone, 1 hour treatment at DIV 4, analysed DIV 7, fold vs DMSO control. The text has this:
Neurite outgrowth assay. Changes in the pattern of neurite outgrowth have been implicated in neurodegenerative disorders as well as traumatic injuries. The discovery of new compounds that can positively affect neuritogenesis are important for developing new therapeutics for neurological diseases. Measurement of neurite outgrowth of rat cortical neurons using an automated image-based assay was used to determine the neuroplastic effects of the compounds of the present invention. In some embodiments, a compound of the present invention increases the pattern of neurite outgrowth. In some embodiments, a compound of the present invention increases neurite average length compared to a control. In some embodiments, a compound of the present invention increases neurite branch points compared to a control. In some embodiments, a compound of the present invention increases neurite average length and neurite branch points compared to a control.
Neurite Outgrowth Assay. Rat cortical neurons (20,000 cells/well) were freshly isolated from embryonic day 18 rats and cultured in Neurobasal Medium (+B27). The cultured cells were plated in 96 well-plates (avoiding external wells). At DIV 4, the neurons were treated with compound or control (10 μM) for 1 hour followed by complete washout of the compound. At DIV 7, the neurons were analyzed. The experiments were performed in triplicate. Neurite outgrowth was measured analyzing the following parameters: Number of Cell Bodies, total neurite length (pixels), Root Count, Segments, Extremities Count and node points. Changes in the pattern of neurite outgrowth of the neurons were analyzed by immunocytochemistry against β-III-tubulin. Pictures were acquired by the CellInsight CX7 from Thermo Fisher and analyzed using its software. Results generated in the equipment were maximum neurite length, extremity count, root count, dendrite branch points, and total neurite length. The results were compared to DMSO control, representing the fold-change in neuronal outgrowth.

Where [3] appears, read: read-out: Neurite Average Length @ 10 μM.
[4] abbreviates: read-out: Neurite Branch Points: @ 10 μM.

T1 sequence (P28223 whole entry): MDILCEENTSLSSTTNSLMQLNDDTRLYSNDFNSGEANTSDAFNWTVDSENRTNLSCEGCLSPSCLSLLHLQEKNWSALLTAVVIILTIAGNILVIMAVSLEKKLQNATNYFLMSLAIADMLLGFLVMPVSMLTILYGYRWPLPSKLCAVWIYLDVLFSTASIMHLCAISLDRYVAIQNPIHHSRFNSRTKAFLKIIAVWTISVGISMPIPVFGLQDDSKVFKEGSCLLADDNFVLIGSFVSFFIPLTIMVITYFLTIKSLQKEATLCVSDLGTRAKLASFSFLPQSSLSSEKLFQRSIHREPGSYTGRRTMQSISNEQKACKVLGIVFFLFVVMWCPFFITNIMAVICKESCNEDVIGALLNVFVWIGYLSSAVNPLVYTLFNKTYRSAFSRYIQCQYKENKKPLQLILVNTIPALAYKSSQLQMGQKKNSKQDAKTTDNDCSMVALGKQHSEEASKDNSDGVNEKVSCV

`CN(C)CCc1c[nH]c2ccccc12` [Example 1, N,N-dimethyltryptamine, reference compound]: the Emax at 10 µM in the experiment with cortical neurons came to 79%. Further, the “activation of 5HT2A sensor assay in agonist mode at 10 μM” value with 5HT2A sensor [1] (10 μM of compound (FIG. 11)) is “activate the 5HT2A sensor assay in agonist mode”.
The EC50 is the midpoint of the concentration-response curve. For `COc1ccc2c(ccn2CCN2CCCC2)c1` [Example 44, 5-methoxy-1-(2-(pyrrolidin-1-yl)ethyl)-1H-indole], in the experiment with 5HT2A sensor [1], the “5HT2A Agonist mean @ 100 nM (%)” value is listed as “B (does not activate 5HT2A sensor assay in agonist mode)”, the “5HT2A Agonist mean @ 10 μM (%)” value was “B (does not activate 5HT2A sensor assay in agonist mode)” and the “5HT2A Agonist mean @ 100 μM (%)” value was “B (does not activate 5HT2A sensor assay in agonist mode)”. Moreover, on 5HT2A, the EC50 was more than 10 µM. In addition, in the experiment with 5HT2A sensor [2], the “5HT2A Antagonist mean @ 100 nM (%)” value is “C (inhibits 5HT response by <75%)”, the “5HT2A Antagonist mean @ 10 μM (%)” value is given as “A (inhibits 5HT response by >100%)” and the “5HT2A Antagonist mean @ 100 μM (%)” value is “A (inhibits 5HT response by >100%)”. The fold induction at 10 µM in the experiment with rat cortical neurons (setting [3]) lay within 1.5 to 3. Moreover, in the experiment on rat cortical neurons (setting [4]), the fold induction at 10 µM was more than 3.
As for `COc1ccc2c(ccn2CCN2CCCCC2)c1` [Example 45, 5-methoxy-1-(2-(piperidin-1-yl)ethyl)-1H-indole], in the experiment on 5HT2A sensor [1], the “5HT2A Agonist mean @ 100 nM (%)” value is reported as “B (does not activate 5HT2A sensor assay in agonist mode)”, the “5HT2A Agonist mean @ 10 μM (%)” value is “B (does not activate 5HT2A sensor assay in agonist mode)” and the “5HT2A Agonist mean @ 100 μM (%)” value is “B (does not activate 5HT2A sensor assay in agonist mode)”. Moreover, the EC50 on 5HT2A is more than 10 µM. In the experiment on 5HT2A sensor [2], the “5HT2A Antagonist mean @ 100 nM (%)” value is given as “A (inhibits 5HT response by >100%)”, the “5HT2A Antagonist mean @ 10 μM (%)” value is “B (inhibits 5HT response by 75% to 100%)” and the “5HT2A Antagonist mean @ 100 μM (%)” value is “A (inhibits 5HT response by >100%)”. For the same compound, in the experiment on rat cortical neurons (setting [3]), the fold induction at 10 µM was 1.5 to 3. Moreover, in the experiment on rat cortical neurons (setting [4]), the fold induction at 10 µM lay in the range of 1.5 to 3.
